Source: patent US9249102B2 (priority 2012, dated 2016)
Like-named read-outs stand apart in the source and are kept apart here.

Legend:
Haemonchus contortus = test: Method A: Haemonchus contortus L1 larvae, microtitre plate screen; conditions: 96 h, read-out: motility inhibition
[1] = test system: microfilaria of Dirofilaria immitis; test: Method F: microfilaria of Dirofilaria immitis, survival at 24 hours
[2] = survival of microfilaria at 24 hours

Compound	inhibition at 5 µg/mL (Haemonchus contortus) [%]	EC50 [1, 2] [µg/mL]	EC50 [1] [µg/mL]
CC(CN1CCN(c2ccc3ccccc3c2)CC1)C(=O)N1CCC(Nc2ccc([N+](=O)[O-])c(C(F)(F)F)c2)CC1 (stereo not shown) [Compound 13, 2-methyl-3-[4-(naphthalen-2-yl)piperazin-1-yl]-1-(4-[[4-nitro-3-(trifluoromethyl)phenyl]amino]piperidin-1-yl)propan-1-one]	≥ 90	< 1	
O=C(CO[C@H]1CC[C@H](Nc2ccc([N+](=O)[O-])c(C(F)(F)F)c2)CC1)N1CCN(c2ccc3ccccc3c2)CC1 [Compound 14, 1-[4-(naphthalen-2-yl)piperazin-1-yl]-2-[(4-[[4-nitro-3-(trifluoromethyl)phenyl]amino]cyclohexyl)oxy]ethan-1-one]	≥ 90	< 1	
O=C(CO[C@H]1CC[C@H](Nc2ccc([N+](=O)[O-])c(C(F)(F)F)c2)CC1)N1CCN(c2ccc3cc(F)ccc3c2)CC1 [Compound 17, 1-[4-(6-fluoronaphthalen-2-yl)piperazin-1-yl]-2-[(4-[[4-nitro-3-(trifluoromethyl)phenyl]amino]cyclohexyl)oxy]ethan-1-one]	≥ 90	< 1	
N#Cc1ccc(NC2CCN(C(=O)CCCN3CCN(c4ccc5cc(F)ccc5c4)CC3)CC2)cc1C(F)(F)F [Compound 18, 4-[(1-[4-[4-(6-fluoronaphthalen-2-yl)piperazin-1-yl]butanoyl]-piperidin-4-yl)amino]-2-(trifluoromethyl)benzonitrile]	≥ 90	< 1	
O=C(CO[C@H]1CC[C@H](Nc2ccc([N+](=O)[O-])c(C(F)(F)F)c2)CC1)N1CCN(C(=O)C2Cc3cc(Cl)ccc3O2)CC1 (stereo partly shown) [Compound 79, 1-[4-[(5-chloro-2,3-dihydro-1-benzofuran-2-yl)carbonyl]piperazin-1-yl]-2-[(4-[[4-nitro-3-(trifluoromethyl)phenyl]amino]cyclohexyl)oxy]ethan-1-one]	≥ 90	< 5	
O=C(CO[C@H]1CC[C@H](Nc2ccc([N+](=O)[O-])c(C(F)(F)F)c2)CC1)N1CCN(C(=O)C2Cc3cc(C(F)(F)F)ccc3O2)CC1 (stereo partly shown) [Compound 81, 2-[4-(4-nitro-3-trifluoromethyl-phenylamino)-cyclohexyloxy]-1-[4-(5-trifluoromethyl-2,3-dihydro-benzofuran-2-carbonyl)-piperazin-1-yl]-ethanone]	≥ 90	< 1	
N#Cc1ccc(N[C@H]2CC[C@H](OCC(=O)N3CCN(CC4Cc5cc(F)ccc5O4)CC3)CC2)cc1C(F)(F)F (stereo partly shown) [Compound 83]	≥ 90	< 5	
N#Cc1ccc(N[C@H]2CC[C@H](OCC(=O)N3CCN(C(=O)C4Cc5cc(C(F)(F)F)ccc5O4)CC3)CC2)cc1C(F)(F)F (stereo partly shown) [Compound 87, 2-[4-(4-cyano-3-trifluoromethyl-phenylamino)-cyclohexyloxy]-1-[4-(5-trifluoromethyl-2,3-dihydro-benzofuran-2-carbonyl)-piperazin-1-yl]-ethanone]	≥ 90	< 5	
O=C(CO[C@H]1CC[C@H](Nc2ccc([N+](=O)[O-])c(C(F)(F)F)c2)CC1)N1CCN(c2ccc3ccccc3n2)CC1 [Compound 88, 2-((1R,4R)-4-(4-nitro-3-(trifluoromethyl)phenylamino)cyclohexyloxy)-1-(4-(quinolin-2-yl)piperazin-1-yl)ethanone]	≥ 90	< 5	
CC(CN1CCN(c2ccc3cc(C(F)(F)F)ccc3n2)CC1)C(=O)N1CCC(Nc2ccc([N+](=O)[O-])c(C(F)(F)F)c2)CC1 (stereo not shown) [Compound 92, 2-methyl-1-(4-(4-nitro-3-(trifluoromethyl)phenylamino)piperidin-1-yl)-3-(4-(6-(trifluoromethyl)quinolin-2-yl)piperazin-1-yl)propan-1-one]	≥ 90	< 1	
CC(CN1CCN(c2ccc3cc(Cl)ccc3n2)CC1)C(=O)N1CCC(Nc2ccc([N+](=O)[O-])c(C(F)(F)F)c2)CC1 (stereo not shown) [Compound 93, 3-[4-(6-chloroquinolin-2-yl)piperazin-1-yl]-2-methyl-1-(4-[[4-nitro-3-(trifluoromethyl)phenyl]amino]piperidin-1-yl)propan-1-one]	≥ 90	< 5	
N#Cc1ccc(NC2CCN(C(=O)CCCN3CCN(c4ccc5cc(Cl)ccc5n4)CC3)CC2)cc1C(F)(F)F [Compound 96, 4-[(1-[4-[4-(6-chloroquinolin-2-yl)piperazin-1-yl]butanoyl]piperidin-4-yl)amino]-2-(trifluoromethyl)benzonitrile]	≥ 90	< 5	
Cc1cc(N2CCN(C(=O)CO[C@H]3CC[C@H](Nc4ccc([N+](=O)[O-])c(C(F)(F)F)c4)CC3)CC2)nc2ccccc12 [Compound 98, 1-[4-(4-methylquinolin-2-yl)piperazin-1-yl]-2-[(4-[[4-nitro-3-(trifluoromethyl)phenyl]amino]cyclohexyl)oxy]ethan-1-one]	≥ 90	< 5	
CC(CN1CCN(c2ccc3cc(F)ccc3n2)CC1)C(=O)N1CCC(Nc2ccc([N+](=O)[O-])c(C(F)(F)F)c2)CC1 (stereo not shown) [Compound 100, 3-[4-(6-fluoroquinolin-2-yl)piperazin-1-yl]-2-methyl-1-(4-[[4-nitro-3-(trifluoromethyl)phenyl]amino]piperidin-1-yl)propan-1-one]	≥ 90	< 5	
N#Cc1ccc(NC2CCN(C(=O)CCCN3CCN(c4ccc5cc(F)ccc5n4)CC3)CC2)cc1C(F)(F)F [Compound 103, 4-[(1-[4-[4-(6-fluoroquinolin-2-yl)piperazin-1-yl]butanoyl]piperidin-4-yl)amino]-2-(trifluoromethyl)benzonitrile]	≥ 90	< 5	
O=C(CO[C@H]1CC[C@H](Nc2ccc([N+](=O)[O-])c(C(F)(F)F)c2)CC1)N1CCN(Cc2cc3cc(F)ccc3o2)CC1 [Compound 179, 1-[4-[(5-fluoro-1-benzofuran-2-yl)methyl]piperazin-1-yl]-2-[(4-[[4-nitro-3-(trifluoromethyl)phenyl]amino]cyclohexyl)oxy]ethan-1-one]	≥ 90	< 1	
O=C(CO[C@H]1CC[C@H](Nc2ccc([N+](=O)[O-])c(C(F)(F)F)c2)CC1)N1CCN(C(=O)c2cc3cc(Cl)ccc3o2)CC1 [Compound 181, 1-[4-[(5-chloro-1-benzofuran-2-yl)carbonyl]piperazin-1-yl]-2-[(4-[[4-nitro-3-(trifluoromethyl)phenyl]amino]cyclohexyl)oxy]ethan-1-one]	≥ 90	< 1	
O=C(CO[C@H]1CC[C@H](Nc2ccc([N+](=O)[O-])c(C(F)(F)F)c2)CC1)N1CCN(C(=O)c2cc3cc(F)ccc3o2)CC1 [Compound 182, 1-[4-[(5-fluoro-1-benzofuran-2-yl)carbonyl]piperazin-1-yl]-2-[(4-[[4-nitro-3-(trifluoromethyl)phenyl]amino]cyclohexyl)oxy]ethan-1-one]	≥ 90	< 5	
O=C(COc1ccc(Nc2ccc([N+](=O)[O-])c(C(F)(F)F)c2)cc1)N1CCN(Cc2cc3cc(Cl)ccc3o2)CC1 [Compound 184, 1-[4-[(5-chloro-1-benzofuran-2-yl)methyl]piperazin-1-yl]-2-(4-[[4-nitro-3-(trifluoromethyl)phenyl]amino]phenoxy)ethan-1-one]	≥ 90	< 1	
O=C(COc1ccc(Nc2ccc([N+](=O)[O-])c(C(F)(F)F)c2)cc1)N1CCN(CC2Cc3cc(F)ccc3O2)CC1 (stereo not shown) [Compound 185, 1-[4-[(5-fluoro-2,3-dihydro-1-benzofuran-2-yl)methyl]piperazin-1-yl]-2-(4-[[4-nitro-3-(trifluoromethyl)phenyl]amino]phenoxy)ethan-1-one]	≥ 90	< 0.1	
O=C(COc1ccc(Nc2ccc([N+](=O)[O-])c(C(F)(F)F)c2)cc1)N1CCN(Cc2cc3cc(F)ccc3o2)CC1 [Compound 186]	≥ 90	< 1	
O=C(CO[C@H]1CC[C@H](Nc2ccc([N+](=O)[O-])c(C(F)(F)F)c2)CC1)N1CCc2cc(F)ccc2C1 [Compound 193, 1-(6-fluoro-1,2,3,4-tetrahydroisoquinolin-2-yl)-2-[[4-[[4-nitro-3-(trifluoromethyl)phenyl]amino]cyclohexyl]oxy]ethan-1-one]		< 1	
O=C(CO[C@H]1CC[C@H](Nc2ccc([N+](=O)[O-])c(C(F)(F)F)c2)CC1)N1CCc2cc(Cl)ccc2C1 [Compound 195, 1-(6-chloro-1,2,3,4-tetrahydroisoquinolin-2-yl)-2-[[4-[[4-nitro-3-(trifluoromethyl)phenyl]amino]cyclohexyl]oxy]ethan-1-one]			< 1
O=C(CO[C@H]1CC[C@H](Nc2ccc([N+](=O)[O-])c(C(F)(F)F)c2)CC1)Nc1ccc2cc(C(F)(F)F)ccc2n1 [Compound 210, 2-[[4-[[4-nitro-3-(trifluoromethyl)phenyl]amino]cyclohexyl]oxy]-N-[6-(trifluoromethyl)quino-lin-2-yl]acetamide]		< 1	
O=C(NCCOc1ccc(Nc2ccc([N+](=O)[O-])c(C(F)(F)F)c2)cc1)C(=O)NCc1cc2cc(F)ccc2o1 [Compound 229, N^1-((5-fluorobenzofuran-2-yl)methyl)-N^2-(2-(4-(4-nitro-3-(trifluoromethyl)phenylamino)phenoxy)ethyl)oxalamide]		< 1	
O=C(NCCOc1ccc(Nc2ccc([N+](=O)[O-])c(C(F)(F)F)c2)cc1)C(=O)NCc1cc2cc(Cl)ccc2o1 [Compound 230, N^1-((5-chlorobenzofuran-2-yl)methyl)-N^2-(2-(4-(4-nitro-3-(trifluoromethyl)phenylamino)phenoxy)ethyl)oxalamide]		< 5	
O=C(NCCOc1ccc(Nc2ccc([N+](=O)[O-])c(C(F)(F)F)c2)cc1)C(=O)NCc1cc2cc(C(F)(F)F)ccc2o1 [Compound 231]		< 5	
CN(C(=O)C(=O)NCCO[C@H]1CC[C@H](Nc2ccc([N+](=O)[O-])c(C(F)(F)F)c2)CC1)c1ccc2cc(F)ccc2n1 [Compound 242]		< 1	
